Measurements taken from PMC6327999, “Hydroxyl-substituted double Schiff-base condensed 4-piperidone/cyclohexanones as potential anticancer agents with biological evaluation” (Journal of Enzyme Inhibition and Medicinal Chemistry, 2019).
Like-named read-outs stand apart in the source and are kept apart here.

Tests used:
[1] = system: human acute mononuclear granulocyte leukemia (THP-1); assay: Cytotoxicity, MTT assay, THP-1; assay type: cell-based
Procedure, shortened: (§1)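 MTT viability readout (570 nm, DMSO-solubilized formazan after 4 h MTT) following 24 h compound exposure across 0.01–50 µg/mL, triplicates. Cultures in 1640 medium plus 10% FBS, 37 °C, 5% CO2, plated at 1 × 10^4 cells/well a day before; IC50 relative to untreated wells, 0.1% DMSO controls.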

[2] = system: human carcinoma cell lines A549, SGC7901, HePG2, HeLa, K562, THP-1; assay: Cytotoxicity, MTT assay, panel of human carcinoma cell lines (average / overall); assay type: cell-based; settings: for IC50: Homo sapiens
Procedure, shortened: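 Cells seeded at 1 × 10^4 cells/well for 24 h, then given serial compound concentrations of 50 to 0.01 µg/mL for 24 h at 37 °C. Viability by MTT, 4 h, formazan dissolved in DMSO, OD at 570 nm versus 0.1% DMSO controls. IC50 from triplicates.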

[3] = system: human lung carcinoma cells (A549); assay: Cytotoxicity, MTT assay, A549; assay type: cell-based
Procedure, shortened: as §1

[4] = system: human liver hepatocellular carcinoma cell line (Hepg2); assay: Cytotoxicity, MTT assay, HePG2; assay type: cell-based
Procedure, shortened: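 HepG2 cells in DMEM/10% FBS, seeded 1 × 10^4 cells/well for 24 hours, then exposed 24 hours to compounds at 0.01–50 µg/mL (0.1% DMSO control).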

Bax = assay: Western blot, Bax expression; assay type: cell-based, human; settings: HepG2, 3 h, 1.0, 2.0, 4.0 µM, vs negative control
Method: The HepG2 cell lines were treated with different dose of by BAP 5c (1.0, 2.0, 4.0 µM, respectively) for 3 hours, then washed twice with PBS, and lysed in ice-cold modified RIPA buffer containing PMSF (RIPA:PMSF = 100:1; the ultimate density of PMSF is 1.0 mM). The lysates were kept for 30 minutes on the ice, and then centrifuged for 15 min at 12000 rpm/min at 4 °C and the supernatant was collected. The proteins were boiled at 95 °C at 5 min with loading buffer (the volume ratio of protein and the loading buffer is 4:1). Each 50 µg protein of cell lysates were separated by 10% SDS-PAGE gel electrophoresis. The proteins were then transferred onto polyvinylidene fluorides membrane. The membranes were probed with antibodies and visualised using an enhanced chemiluminescence (ECL) detection kit according to the manufacturer instruction.

[5] = system: human cervical carcinoma cells (HeLa); assay: Cytotoxicity, MTT assay, HeLa; assay type: cell-based
Procedure, shortened: (§2)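 Cells seeded 1 × 10^4/well for 24 h, then exposed to serial compound concentrations (50–0.01 µg/mL) for 24 h at 37 °C, 5% CO2; LO2, K562, HeLa, SGC7901 grown in 1640 medium with 10% FBS. MTT 4 h, formazan in DMSO, OD 570 nm; IC50 from triplicate viability versus untreated controls.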

[6] = system: human normal heptical cell line (LO2); assay: Cytotoxicity, MTT assay, non-malignant LO2; assay type: cell-based; settings: 24 hours, non-malignant cells
Procedure, shortened: as §2

[7] = system: human gastric adenocarcinoma cells (SGC7901); assay: Cytotoxicity, MTT assay, SGC7901; assay type: cell-based
Procedure, shortened: as §2

[8] = quotient of the IC50 values towards nonmalignant LO2 cells

What does the source list for `O=C1/C(=C/c2cc(/N=C/c3ccc(O)c(O)c3O)ccc2F)CNC/C1=C\c1cc(/N=C/c2ccc(O)c(O)c2O)ccc1F` [5c]?
IC50 ([1]; Homo sapiens, THP-1, MTT, 24 hours): 900 ± 200 nM; THP-1 SI [1, 8]: 17.0; IC50 ([2]; average over the six carcinoma cell lines, read-out: Ave IC50): 1200 nM; IC50 ([2]; statement for all experimental carcinoma cell lines, read-out: IC50 values against human carcinoma cell lines): < 2000 nM; Ave SI ([2]; average over the six carcinoma cell lines): 14.1; IC50 ([3]; Homo sapiens, A549, MTT, 24 hours): 1400 ± 200 nM; A549 SI [3, 8]: 10.7; IC50 ([4]; Homo sapiens, HepG2, MTT, 24 hours): 600 ± 100 nM; HePG2 SI [4, 8]: 24.5; expression level of Bax (Bax): up-regulate the expression level of Bax; IC50 ([5]; Homo sapiens, HeLa, MTT, 24 hours): 1500 ± 300 nM; HeLa SI [5, 8]: 9.8; IC50 [6]: 15200 ± 600 nM; IC50 ([7]; Homo sapiens, SGC-7901, MTT, 24 hours): 1400 ± 100 nM; SGC7901 SI [7, 8]: 11.1
